This data set can be described thus: Observation of the monomer composition after preparation (clarity, solubility, premature polymerization). It is filed as physicochemical. As to conditions: 2 wt % in 2-octyl cyanoacrylate monomer. The source says:
The characteristics of the composition are observed at about one minute after preparation and later at least twenty-four hours after preparation.

In the case of `O=C(O)c1ccccc1O` [salicylic acid], under “inferred from clear solution”, the “solubility in the monomer” value is given as “soluble”. Also, where the note is “up to at least twenty-four hours”, the “premature polymerization of the monomer” value was “does not cause premature polymerization”.

These data come from patent publication US20040223932A1, “Adhesive treatment for acne” (Closure Medical Corporation, priority 2003, published 2004).
